Where two headings read alike, the source gives them in different places.
Assays:
5-HT1B = 5-HT1B (Homo sapiens, UniProt P28222); assay: Radioligand binding in vitro assay, 5-HT1B
5-HT1D = 5-HT1D (Homo sapiens, UniProt P28221); assay: Radioligand binding in vitro assay, 5-HT1D
5-HT1E = 5-HT1E (Homo sapiens, UniProt P28566); assay: Radioligand binding in vitro assay, 5-HT1E
5-HT2B [1] = molecular target: T1, 5-HT2B (Homo sapiens, UniProt P41595); assay: Radioligand binding in vitro assay, 5-HT2B
5-HT7A [2] = molecular target: T2, 5-HT7A (Homo sapiens, UniProt P34969); assay: Radioligand binding in vitro assay, 5-HT7A
Sigma 1 = Sigma 1 (Homo sapiens, UniProt Q99720); assay: Radioligand binding in vitro assay, Sigma 1
Sigma 2 = Sigma 2 (Homo sapiens, UniProt Q5BJF2); assay: Radioligand binding in vitro assay, Sigma 2
mice [3] = assay: In vivo mouse head-twitch response
5-HT5A = 5-HT5A (Homo sapiens, UniProt P47898); assay: Radioligand binding in vitro assay, 5-HT5A
5-HT2C [4] = molecular target: T3, 5-HT2C (Homo sapiens, UniProt P28335); assay: biochemical; conditions: radioligand binding
5-HT6 [5] = molecular target: T4, 5-HT6 (Homo sapiens, UniProt P50406); assay: Radioligand binding in vitro assay, 5-HT6
mice [6] = assay: Elevated plus maze
5-HT2A [7] = molecular target: T5, 5-HT2A (Homo sapiens, UniProt P28223); assay: In vitro functional activity, 5-HT2A; assay type: biochemical; conditions: agonism
5-HT2B [8] = molecular target: T1, 5-HT2B; assay: In vitro functional activity, 5-HT2B; assay type: biochemical; conditions: agonism
Excerpt: (§1) The functional activity considers agonism vs. antagonism. […] Each of these receptors affects mental health, learning, memory, and more specifically, 5-HT6 is responsible for precognitive effects and neuronal connections, growth, and migration.

5-HT2C [9] = molecular target: T3, 5-HT2C; assay: biochemical; conditions: agonism
5-HT6 [10] = molecular target: T4, 5-HT6; assay: In vitro functional activity, 5-HT6; assay type: biochemical; conditions: agonism
Excerpt: as §1

5-HT7A [11] = molecular target: T2, 5-HT7A; assay: In vitro functional activity, 5-HT7A; assay type: biochemical; conditions: agonism; inverse agonism at 5-HT7A
Excerpt: as §1

mice [12] = assay: 2-day Porsolt Forced-Swim Test; assay type: in vivo; conditions: Mus musculus, ip, both days, read-out: Porsolt Forced Swim (Both Days), minimum effective dose
Excerpt: The 2-day Porsolt Forced-Swim Test is a preclinical assay that tests for antidepressant effects in mice. […] Day 2 behavior is more likely to assess learning and memory with shorter swim times indicative of learning to be rescued.

mice [13] = assay: Fear extinction and conditioning; assay type: in vivo, mouse
Excerpt: The fear extinction and conditioning model is a preclinical assay that performs a stimulus and tests response time and recognition of the stimulus. This translational model can correlate to anxiety, PTSD, memory, and precognitive effects to the positive control (4-AcO-DMT).

5-HT1A = 5-HT1A (Homo sapiens, UniProt P08908); assay: Radioligand binding in vitro assay, 5-HT1A
5-HT2A [14] = molecular target: T5, 5-HT2A; assay: biochemical; conditions: radioligand binding
[15] = rat, in vivo
in vivo = conditions: rat, 3 mg/kg
[16] = Rat pharmacodynamics (hypothermia) of intranasal DMT; conditions: in vivo
[17] = assay type: in vivo; conditions: rat; oral or IV administration; within minutes
Description: The rat PK (FIG. 6) was assessed with an oral dose of 10 mg/kg and intravenously at 1 mg/kg. […] The PK and brain concentrations were assessed in cohorts of 3 […] for each dosing group and between the plasma vs brain concentrations. For 10 mg/kg oral dosing, the PK parameters are outlined in Table 16 below.
1 mg/kg IV dosing, the PK parameters are outlined in Table 17.

[18] = radioligand binding, read-out: Ki 5-HT1B
[19] = radioligand binding, read-out: Ki 5-HT1D
[20] = radioligand binding, read-out: Ki 5-HT1E
[21] = radioligand binding, read-out: Ki Sigma 1
[22] = radioligand binding, read-out: Ki Sigma 2
[23] = radioligand binding, read-out: Ki 5-HT5A

Sequence of Sigma 1 (Q99720 whole entry): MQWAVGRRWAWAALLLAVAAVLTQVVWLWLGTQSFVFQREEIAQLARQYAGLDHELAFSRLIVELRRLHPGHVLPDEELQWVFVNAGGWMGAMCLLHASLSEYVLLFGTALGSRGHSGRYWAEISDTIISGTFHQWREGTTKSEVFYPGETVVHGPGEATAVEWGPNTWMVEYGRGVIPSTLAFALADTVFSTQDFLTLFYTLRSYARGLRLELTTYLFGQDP
Sequence of 5-HT1B (P28222 whole entry): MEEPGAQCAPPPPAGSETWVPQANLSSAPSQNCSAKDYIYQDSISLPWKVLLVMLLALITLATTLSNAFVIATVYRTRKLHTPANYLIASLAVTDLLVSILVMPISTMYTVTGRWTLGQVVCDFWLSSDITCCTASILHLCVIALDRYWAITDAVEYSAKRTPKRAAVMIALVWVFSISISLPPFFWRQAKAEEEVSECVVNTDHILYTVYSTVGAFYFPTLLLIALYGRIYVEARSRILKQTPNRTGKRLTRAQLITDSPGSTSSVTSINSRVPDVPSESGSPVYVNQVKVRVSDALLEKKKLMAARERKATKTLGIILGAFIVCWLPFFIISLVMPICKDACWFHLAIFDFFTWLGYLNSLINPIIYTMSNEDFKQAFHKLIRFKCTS
Sequence of 5-HT5A (P47898 whole entry): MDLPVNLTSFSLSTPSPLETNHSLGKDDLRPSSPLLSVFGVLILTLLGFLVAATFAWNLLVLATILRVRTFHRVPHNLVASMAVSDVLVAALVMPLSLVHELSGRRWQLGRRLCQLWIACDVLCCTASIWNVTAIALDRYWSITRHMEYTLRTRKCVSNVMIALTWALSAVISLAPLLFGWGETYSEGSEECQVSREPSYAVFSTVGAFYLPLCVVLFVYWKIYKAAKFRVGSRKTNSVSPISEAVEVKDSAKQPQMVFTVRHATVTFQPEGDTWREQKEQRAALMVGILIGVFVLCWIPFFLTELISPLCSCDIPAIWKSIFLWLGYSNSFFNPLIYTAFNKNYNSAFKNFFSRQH
T5 sequence (P28223 whole entry): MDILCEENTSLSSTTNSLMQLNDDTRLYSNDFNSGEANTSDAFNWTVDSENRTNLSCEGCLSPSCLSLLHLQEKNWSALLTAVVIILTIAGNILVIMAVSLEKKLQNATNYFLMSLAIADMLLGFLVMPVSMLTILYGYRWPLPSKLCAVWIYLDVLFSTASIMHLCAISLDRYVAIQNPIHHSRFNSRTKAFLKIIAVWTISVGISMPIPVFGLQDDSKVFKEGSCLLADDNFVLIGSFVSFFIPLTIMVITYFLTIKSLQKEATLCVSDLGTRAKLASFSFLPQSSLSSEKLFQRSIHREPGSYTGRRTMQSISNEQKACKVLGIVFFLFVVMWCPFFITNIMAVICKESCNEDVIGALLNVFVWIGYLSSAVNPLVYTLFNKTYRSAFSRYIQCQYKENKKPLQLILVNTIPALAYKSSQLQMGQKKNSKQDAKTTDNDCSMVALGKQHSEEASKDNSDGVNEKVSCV
Sequence of Sigma 2 (Q5BJF2 whole entry): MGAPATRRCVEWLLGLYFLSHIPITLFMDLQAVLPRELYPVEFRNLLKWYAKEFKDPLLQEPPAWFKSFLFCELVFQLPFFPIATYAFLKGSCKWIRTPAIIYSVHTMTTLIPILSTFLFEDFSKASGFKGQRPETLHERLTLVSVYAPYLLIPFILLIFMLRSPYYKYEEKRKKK
Sequence of 5-HT1A (P08908 whole entry): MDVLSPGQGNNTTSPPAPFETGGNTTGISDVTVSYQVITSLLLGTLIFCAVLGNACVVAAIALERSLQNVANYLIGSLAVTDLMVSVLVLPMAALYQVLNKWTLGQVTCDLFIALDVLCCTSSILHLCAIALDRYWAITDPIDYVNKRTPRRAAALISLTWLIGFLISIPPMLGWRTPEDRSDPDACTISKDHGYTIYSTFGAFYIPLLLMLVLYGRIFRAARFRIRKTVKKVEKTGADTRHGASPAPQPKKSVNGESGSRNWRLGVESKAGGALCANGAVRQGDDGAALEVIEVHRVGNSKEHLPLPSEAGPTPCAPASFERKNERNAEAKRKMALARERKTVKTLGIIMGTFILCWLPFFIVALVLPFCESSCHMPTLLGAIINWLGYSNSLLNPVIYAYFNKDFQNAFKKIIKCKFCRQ
Sequence of 5-HT1D (P28221 whole entry): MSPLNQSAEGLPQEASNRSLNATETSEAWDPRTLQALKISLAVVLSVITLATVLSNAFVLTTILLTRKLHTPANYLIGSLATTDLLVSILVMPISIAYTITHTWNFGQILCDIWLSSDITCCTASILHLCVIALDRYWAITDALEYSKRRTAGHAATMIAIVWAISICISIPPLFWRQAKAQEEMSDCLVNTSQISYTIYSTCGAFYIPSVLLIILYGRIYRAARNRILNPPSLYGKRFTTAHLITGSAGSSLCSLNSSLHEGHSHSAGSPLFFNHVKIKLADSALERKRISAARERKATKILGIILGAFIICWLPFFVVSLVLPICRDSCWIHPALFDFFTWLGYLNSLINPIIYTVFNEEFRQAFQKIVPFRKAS
T2 sequence (P34969 other isoform, or with tags, fused parts or gaps): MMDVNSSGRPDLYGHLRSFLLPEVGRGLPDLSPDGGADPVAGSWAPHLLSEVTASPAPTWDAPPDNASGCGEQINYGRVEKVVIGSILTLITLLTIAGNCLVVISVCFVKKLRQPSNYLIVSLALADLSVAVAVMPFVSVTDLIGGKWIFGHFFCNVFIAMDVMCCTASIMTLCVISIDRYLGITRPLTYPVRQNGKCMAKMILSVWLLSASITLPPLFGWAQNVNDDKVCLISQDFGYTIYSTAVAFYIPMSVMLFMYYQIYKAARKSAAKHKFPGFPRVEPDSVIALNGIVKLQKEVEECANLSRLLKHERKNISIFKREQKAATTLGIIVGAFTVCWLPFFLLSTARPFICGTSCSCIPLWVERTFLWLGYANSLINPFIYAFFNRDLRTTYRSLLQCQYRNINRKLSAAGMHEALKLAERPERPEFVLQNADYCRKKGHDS
T3 sequence (P28335 33-458): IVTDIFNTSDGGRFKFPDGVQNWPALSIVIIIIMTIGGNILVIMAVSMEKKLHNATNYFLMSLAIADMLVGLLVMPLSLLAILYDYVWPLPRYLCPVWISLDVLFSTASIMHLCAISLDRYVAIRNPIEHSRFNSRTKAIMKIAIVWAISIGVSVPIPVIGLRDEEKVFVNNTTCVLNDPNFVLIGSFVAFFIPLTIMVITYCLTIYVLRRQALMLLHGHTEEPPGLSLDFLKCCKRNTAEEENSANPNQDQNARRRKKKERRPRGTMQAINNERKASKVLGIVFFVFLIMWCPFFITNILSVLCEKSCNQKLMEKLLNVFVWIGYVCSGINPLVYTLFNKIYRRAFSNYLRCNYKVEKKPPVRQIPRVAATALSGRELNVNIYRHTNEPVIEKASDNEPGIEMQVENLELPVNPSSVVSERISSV
Sequence of 5-HT1E (P28566 whole entry): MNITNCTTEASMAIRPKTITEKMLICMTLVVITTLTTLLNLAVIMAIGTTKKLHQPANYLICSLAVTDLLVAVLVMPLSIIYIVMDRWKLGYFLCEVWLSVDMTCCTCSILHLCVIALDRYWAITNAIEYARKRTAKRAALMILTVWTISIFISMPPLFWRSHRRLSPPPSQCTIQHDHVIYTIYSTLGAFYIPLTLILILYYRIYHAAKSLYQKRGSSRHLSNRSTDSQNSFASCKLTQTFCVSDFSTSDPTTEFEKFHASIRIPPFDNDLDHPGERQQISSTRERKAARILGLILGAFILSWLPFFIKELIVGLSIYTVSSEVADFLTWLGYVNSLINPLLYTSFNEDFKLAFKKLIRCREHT
T4 sequence (P50406 whole entry): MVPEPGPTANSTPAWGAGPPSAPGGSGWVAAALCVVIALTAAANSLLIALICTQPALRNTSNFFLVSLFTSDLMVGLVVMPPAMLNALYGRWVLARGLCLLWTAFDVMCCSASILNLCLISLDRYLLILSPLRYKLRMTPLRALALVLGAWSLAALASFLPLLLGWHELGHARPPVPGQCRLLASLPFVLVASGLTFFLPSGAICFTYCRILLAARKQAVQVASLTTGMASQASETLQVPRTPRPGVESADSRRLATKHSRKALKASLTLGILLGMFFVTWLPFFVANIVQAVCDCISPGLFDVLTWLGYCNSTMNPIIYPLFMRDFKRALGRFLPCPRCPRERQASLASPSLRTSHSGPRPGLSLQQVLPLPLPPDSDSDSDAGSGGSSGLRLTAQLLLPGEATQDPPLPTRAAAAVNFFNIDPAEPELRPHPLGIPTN
T1 sequence (P41595 whole entry): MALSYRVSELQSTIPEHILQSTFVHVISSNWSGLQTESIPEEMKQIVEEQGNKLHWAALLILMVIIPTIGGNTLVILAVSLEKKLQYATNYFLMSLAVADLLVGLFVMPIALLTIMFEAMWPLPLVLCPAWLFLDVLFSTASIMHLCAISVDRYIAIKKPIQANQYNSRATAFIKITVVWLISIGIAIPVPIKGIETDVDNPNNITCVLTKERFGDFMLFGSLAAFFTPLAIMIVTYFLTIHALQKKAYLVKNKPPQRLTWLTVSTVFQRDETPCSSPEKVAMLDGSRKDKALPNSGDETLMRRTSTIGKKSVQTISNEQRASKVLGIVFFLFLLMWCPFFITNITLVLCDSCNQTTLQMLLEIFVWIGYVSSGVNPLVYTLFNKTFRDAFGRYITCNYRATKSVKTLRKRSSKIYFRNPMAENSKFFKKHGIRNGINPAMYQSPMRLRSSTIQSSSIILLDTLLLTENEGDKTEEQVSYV

Molecule `CN(C)CCc1c(Cl)[nH]c2ccccc12` [drawing 3] has a Ki (5-HT1B; [18]) greater than 10000 nM, a Ki (5-HT1D; [19]) greater than 10000 nM and a Ki (5-HT1E; [20]) of 3910 nM. It also gave a Ki (5-HT2B [1]) of 191 nM.

With `CC(=O)Oc1cccc2[nH]cc(CCN(C)C)c12` [drawing 11] the Ki (5-HT7A [2]; radioligand binding) was 59.6 nM, the Ki (Sigma 1; [21]) was greater than 10000 nM and the Ki (Sigma 2; [22]) was greater than 10000 nM.

In the case of `CN(C)CCc1c[nH]c2cccc(NS(C)(=O)=O)c12` [drawing 25], the “Head Twitch Response Results” value (mice [3]) is reported as “No Head Twitch up to 25 mg/kg”.

Molecule `CN(C)CCc1c(Br)[nH]c2ccccc12` [drawing 9] has a Ki (5-HT5A; [23]) of 1520 nM, a Ki (5-HT7A [2]; radioligand binding) of 137 nM and a Ki (Sigma 1; [21]) of 239 nM. For the same molecule, the Ki (Sigma 2; [22]) was 2460 nM.

For `CC(=O)Oc1cccc2[nH]cc(CCN(C)C)c12` [drawing 22, reference compound], the “Head Twitch Response Results” value (mice [3]) was “Positive Control causes head twitch at 20 mg/kg”.

For `CN(C)CCc1c[nH]c2cccc(NS(C)(=O)=O)c12` [drawing 14], the Ki (5-HT2C [4]) was greater than 10000 nM, the Ki (5-HT6 [5]; radioligand binding) was greater than 10000 nM and the Ki (5-HT7A [2]; radioligand binding) was 930 nM. It also gave a Ki (Sigma 1; [21]) greater than 10000 nM and a Ki (Sigma 2; [22]) greater than 10000 nM.

For `CC(C)N(CCc1c(Br)[nH]c2ccccc12)C(C)C` [drawing 6], the Ki (5-HT1B; [18]) was greater than 10000 nM, the Ki (5-HT1D; [19]) was 1070 nM and the Ki (5-HT1E; [20]) was greater than 10000 nM. The Ki (5-HT2B [1]) was 45.2 nM.

In the case of `CC(=O)Nc1cccc2[nH]cc(CCN(C)C)c12` [drawing 26], the “Head Twitch Response Results” value (mice [3]) is reported as “No Head Twitch up to 50 mg/kg”.

In the case of `CN(C)CCc1c[nH]c2cccc(NS(C)(=O)=O)c12` [drawing 33], the “Elevated Plus Maze, effective dose range” value (mice [6]) is reported as 25 mg/kg.

`CC(C)N(CCc1c(Br)[nH]c2ccccc12)C(C)C` [drawing 19] showed an EC50 (5-HT2A [7]) of 2130 nM, an EC50 (5-HT2B [8]) of 18 nM and an EC50 (5-HT2C [9]) greater than 10000 nM. It also gave an EC50 (5-HT6 [10]) of 186 nM and an EC50 (5-HT7A [11]) of 5870 nM.

Molecule `CN(C)CCc1c(Br)[nH]c2ccccc12` [drawing 27] has a minimal effective dose (mice [12]) of 1 to 10 mg/kg.

In the case of `CN(C)CCc1c(Br)[nH]c2ccccc12` [drawing 16], the EC50 (5-HT2A [7]) is reported as greater than 10000 nM, the EC50 (5-HT2B [8]) is reported as 799 nM and the EC50 (5-HT6 [10]) is reported as 7 nM. For the same molecule, the EC50 (5-HT7A [11]) was 225 nM.

In the case of `CN(C)CCc1c(Br)[nH]c2ccccc12` [drawing 20], the “Head Twitch Response Results” value (mice [3]) is reported as “No Head Twitch up to 50 mg/kg”.

For `CC(C)N(CCc1c(Br)[nH]c2ccccc12)C(C)C` [drawing 24], the “Head Twitch Response Results” value (mice [3]) was “No Head Twitch up to 25 mg/kg”.

In the case of `CC(C)N(CCc1c(Br)[nH]c2ccccc12)C(C)C` [drawing 32], the “Elevated Plus Maze, effective dose range” value (mice [6]) is reported as 25 mg/kg.

With `CC(=O)Oc1cccc2[nH]c(Br)c(CCN(C)C)c12` [drawing 18] the EC50 (5-HT2C [9]) was 864 nM, the EC50 (5-HT6 [10]) was 8 nM and the EC50 (5-HT7A [11]) was 917 nM.

`CC(=O)Nc1cccc2[nH]cc(CCN(C)C)c12` [drawing 15] showed a Ki (5-HT2C [4]) of 1000 nM, a Ki (5-HT6 [5]; radioligand binding) greater than 10000 nM and a Ki (5-HT7A [2]; radioligand binding) of 290 nM. The Ki (Sigma 1; [21]) was greater than 10000 nM and the Ki (Sigma 2; [22]) was greater than 10000 nM.

With `CC(C)N(CCc1c(Br)[nH]c2ccccc12)C(C)C` [drawing 36] the “Fear Extinction and Conditioning, effective dose range” value (“Fear Extinction and Conditioning” for short) (mice [13]) was 1 to 10 mg/kg.

For `CC(=O)Oc1cccc2[nH]c(Br)c(CCN(C)C)c12` [drawing 12], the Ki (5-HT2C [4]) was 1220 nM, the Ki (5-HT5A; [23]) was 894 nM and the Ki (5-HT6 [5]; radioligand binding) was 70.7 nM. For the same molecule, the Ki (5-HT7A [2]; radioligand binding) was 396 nM, the Ki (Sigma 1; [21]) was greater than 10000 nM and the Ki (Sigma 2; [22]) was greater than 10000 nM.

In the case of `CN(C)CCc1c(Cl)[nH]c2ccccc12` [drawing 21], the “Head Twitch Response Results” value (mice [3]) is reported as “No Head Twitch up to 100 mg/kg”.

In the case of `CN(C)CCc1c(Br)[nH]c2ccccc12` [drawing 34], the “Fear Extinction and Conditioning” value (mice [13]) is reported as 1 to 10 mg/kg.

`CC(=O)Oc1cccc2[nH]cc(CCN(C)C)c12` [drawing 4] showed a Ki (5-HT2B [1]) of 11.6 nM.

`CN(C)CCc1c(Br)[nH]c2ccccc12` [drawing 2] showed a Ki (5-HT1A) greater than 10000 nM, a Ki (5-HT1B; [18]) greater than 10000 nM and a Ki (5-HT1D; [19]) greater than 10000 nM. It also gave a Ki (5-HT1E; [20]) greater than 10000 nM, a Ki (5-HT2A [14]) of 417 nM and a Ki (5-HT2B [1]) of 222 nM.

`CN(C)CCc1c[nH]c2cccc(NS(C)(=O)=O)c12` [drawing 7] showed a Ki (5-HT1A) of 2900 nM, a Ki (5-HT2A [14]) greater than 10000 nM and a Ki (5-HT2B [1]) of 1900 nM.

`CC(=O)Oc1cccc2[nH]c(Br)c(CCN(C)C)c12` [drawing 29] showed a minimal effective dose (mice [12]) of 5 mg/kg.

Work on `CN(C)CCc1c[nH]c2ccccc12` [N,N-dimethyltryptamine, reference compound] yielded a Ki (5-HT1B) of 557 nM, a Ki (5-HT1D) of 42.2 nM and a Ki (5-HT1E) of 104 nM. For the same molecule, the Ki (5-HT5A) was 155 nM, the Ki (5-HT6 [5]) was 134 nM and the Ki (5-HT7A [2]) was 15.2 nM. The Ki (Sigma 1) was 230 nM, the Ki (Sigma 2) was 777 nM and the “tmax (maximal effects)” value [15] was 10 min. The Cmax (in vivo) was 60 ng/mL and the hypothermia [16] was “dose-dependent hypothermia”.

Molecule `CC(=O)Oc1cccc2[nH]c(Br)c(CCN(C)C)c12` [drawing 5] has a Ki (5-HT1B; [18]) greater than 10000 nM, a Ki (5-HT1D; [19]) greater than 10000 nM and a Ki (5-HT1E; [20]) greater than 10000 nM. It also gave a Ki (5-HT2B [1]) of 67.7 nM.

Molecule `CC(=O)Nc1cccc2[nH]cc(CCN(C)C)c12` [drawing 8] has a Ki (5-HT1A) of 570 nM, a Ki (5-HT2A [14]) of 3400 nM and a Ki (5-HT2B [1]) of 700 nM.

With `CC(=O)Oc1cccc2[nH]c(Br)c(CCN(C)C)c12` [drawing 23] the “Head Twitch Response Results” value (mice [3]) was “No Head Twitch up to 50 mg/kg”.

With `CC(C)N(CCc1c(Br)[nH]c2ccccc12)C(C)C` [drawing 30] the minimal effective dose (mice [12]) was 10 mg/kg.

In the case of `CN(C)CCc1c(Cl)[nH]c2ccccc12` [drawing 10], the Ki (5-HT2C [4]) is reported as 120 nM, the Ki (5-HT5A; [23]) is reported as 3000 nM and the Ki (5-HT6 [5]; radioligand binding) is reported as 62 nM. The Ki (5-HT7A [2]; radioligand binding) was 178 nM, the Ki (Sigma 1; [21]) was 638 nM and the Ki (Sigma 2; [22]) was greater than 10000 nM.

`CN(C)CCc1c(Cl)[nH]c2ccccc12` [drawing 28] showed a minimal effective dose (mice [12]) of 25 mg/kg.

For `CC(=O)Oc1cccc2[nH]c(Br)c(CCN(C)C)c12` [drawing 35], the “Fear Extinction and Conditioning” value (mice [13]) was 5 to 25 mg/kg.

For `Br.CN(C)CCc1c(Br)[nH]c2ccccc12` [2-Br-4-AcO-DMT*HBr, 2-(2-bromo-1H-indol-3-yl)-N,N-dimethylethan-1-amine hydrobromide salt], the “metabolism via deacetylation into 2-Br-4-OH-DMT” value [17] was “rapidly metabolized via deacetylation into an active metabolite”.

In the case of `CC(=O)Oc1cccc2[nH]c(Br)c(CCN(C)C)c12` [drawing 31], the “Elevated Plus Maze, effective dose range” value (mice [6]) is reported as 5 to 10 mg/kg.

Molecule `CN(C)CCc1c(Cl)[nH]c2ccccc12` [drawing 17] has an EC50 (5-HT2A [7]) of 202 nM, an EC50 (5-HT2C [9]) of 4480 nM and an EC50 (5-HT6 [10]) of 9 nM. The EC50 (5-HT7A [11]) was 630 nM.

For `CC(C)N(CCc1c(Br)[nH]c2ccccc12)C(C)C` [drawing 13], the Ki (5-HT2C [4]) was greater than 10000 nM, the Ki (5-HT5A; [23]) was greater than 10000 nM and the Ki (5-HT6 [5]; radioligand binding) was 407 nM. For the same molecule, the Ki (5-HT7A [2]; radioligand binding) was 4930 nM, the Ki (Sigma 1; [21]) was 257 nM and the Ki (Sigma 2; [22]) was 483 nM.

Reference: patent US20260306453A1, “FORMULATIONS CONTAINING TRYPTAMINE DERIVATIVES AND USES THEREOF” (priority 2023, published 2026)
